Values of other authors as cited in EP4364951A1, “OVERCOAT INK AND INK SET CONTAINING SAME” (DNP Fine Chemicals Co., Ltd., priority 2021, dated 2023).

Details: water-octanol, common logarithm
In the case of CCCC(O)CO (stereo not shown) [1.2-Pentanediol], the Partition coefficient is listed as 1.2-Pentanediol (0.011).
For COC(C)CCO (stereo not shown) [3-Methoxy-1-butanol], the Partition coefficient is given as 3-Methoxy -1-butanol (0.070).
In the case of CC(O)CO (stereo not shown) [1,2-Propanediol], the Partition coefficient is given as 1,2-Propanediol (-1.008).
In the case of CCC(O)CO (stereo not shown) [1,2-Butanediol], the Partition coefficient is listed as 1,2-Butanediol (-0.499).
For OCCCO [1,3-Propanediol], the Partition coefficient is listed as 1,3-Propanediol (-1.093).
For CC(C)(O)CCO [3-M ethyl-1,3-butanediol], the Partition coefficient is given as 3- M ethyl- 1,3- butanediol (-0.329).
For CCOCCOCCO [Diethylene glycol monoethyl ether], the Partition coefficient is listed as “Diethylene glycol monoethyl ether (-0.421)”.
